Earlier results in patent US12683165B2, “Positive electrode additive for lithium secondary battery, positive electrode active material comprising same, positive electrode, and lithium secondary battery” (LG ENERGY SOLUTION, LTD., priority 2021, dated 2026).

Conditions: ether-based or carbonate-based solvent of a lithium-sulfur secondary battery electrolyte solution

Structure (SMILES): O=c1[nH]c(=O)c2c3ccc4cccc5c6cccc7ccc(c12)c(c76)c3c45 [BPI, benzo[ghi]peryleneimide]
- dissolution in electrolyte solution solvent: tends to be dissolved
